The test can be described thus: Kinetic parameter for hydrolysis of 1 by Antibody 2D10 after addition of compound 12. In kind it is ADME.

Each structure is given as a SMILES string.

The Ki is a dissociation constant, usually derived from enzyme kinetics or from competition with a known ligand. Low values mean tighter binding, high ones weaker binding. As for `CC(=O)O[C@@H](COCc1ccc([N+](=O)[O-])cc1)COP(=O)(O)CCCCCC(=O)O`, the Ki is 2.8 µM.

(Values after ChEMBL document CHEMBL1130568, “Antibody-mediated regio- and enantioselective resolution of a glycerol derivative” (Bioorg Med Chem Lett, 1997).)
